These results are taken from publication PMC3927924, “Bisubstrate UDP–peptide conjugates as human O-GlcNAc transferase inhibitors” (Biochemical Journal, 2014).

The IC50 is the point on the concentration scale where inhibition reaches its midpoint. By Kd is commonly meant the equilibrium constant for the complex coming apart. The Ki is the equilibrium dissociation constant of an inhibitor or competing ligand from its target.

The target of experiment [1] is T1, hOGT-(312–1031) (Homo sapiens, UniProt O15294).
T1 construct: Reactions contained 50 nM hOGT-(312–1031) in 50 mM Tris/HCl; made in house
T1 sequence (O15294 312-1031 isoform O15294-3): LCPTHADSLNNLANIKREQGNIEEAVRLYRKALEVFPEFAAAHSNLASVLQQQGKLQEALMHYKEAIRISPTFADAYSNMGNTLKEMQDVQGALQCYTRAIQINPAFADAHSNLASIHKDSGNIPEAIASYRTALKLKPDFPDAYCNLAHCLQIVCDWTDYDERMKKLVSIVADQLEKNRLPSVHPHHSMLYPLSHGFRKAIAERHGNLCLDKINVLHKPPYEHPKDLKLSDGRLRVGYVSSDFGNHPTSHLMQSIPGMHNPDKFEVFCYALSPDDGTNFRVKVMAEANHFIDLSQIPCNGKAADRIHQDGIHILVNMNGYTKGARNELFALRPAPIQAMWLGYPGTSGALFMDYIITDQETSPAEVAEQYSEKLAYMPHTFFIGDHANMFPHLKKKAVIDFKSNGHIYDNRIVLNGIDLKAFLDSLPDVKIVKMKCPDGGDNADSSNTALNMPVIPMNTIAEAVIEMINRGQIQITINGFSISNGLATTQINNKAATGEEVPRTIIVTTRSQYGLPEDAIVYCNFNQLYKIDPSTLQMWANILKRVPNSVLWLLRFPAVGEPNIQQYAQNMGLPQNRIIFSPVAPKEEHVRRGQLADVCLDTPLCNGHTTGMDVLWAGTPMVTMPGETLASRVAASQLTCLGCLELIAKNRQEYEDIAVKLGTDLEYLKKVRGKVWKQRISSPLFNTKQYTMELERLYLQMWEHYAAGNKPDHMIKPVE
Kind of experiment: In vitro glycosylation of peptide substrate KKENSPAVTPVSTA by hOGT, fluorimetric UDP detection. It is filed as biochemical. As to conditions: 10 μM peptide KKENSPAVTPVSTA, 3.2 μM UDP-GlcNAc, 50 nM hOGT. As to the method: Reactions contained 50 nM hOGT-(312–1031) in 50 mM Tris/HCl (pH 7.5), 0.1 mg/ml BSA, 10 μM sodium dithionate and 10 μM peptide (KKENSPAVTPVSTA) and various amounts of inhibitors in a total volume of 100 μl. Reaction mixtures were pre-incubated for 15 min and started by addition of UDP-GlcNAc to a final concentration of 3.2 μM. After 30 min of incubation at 22°C, assays were stopped by adding 200 μl of 25 mM Hepes (pH 7.4), 10 mM NaCl, 50% (v/v) methanol and 15 μM fluorophore, a UDP-sensitive xanthene-based Zn(II) complex prepared as described in [19, 20]. Product formation was detected fluorimetrically on a Gemini EM fluorescence microplate reader (Molecular Devices) at excitation and emission wavelengths of 485 nm and 530 nm respectively. A non-linear regression curve fit was performed with Prism.

For experiment [2], the target named is T1, hOGT-(312–1031). Put plainly: Biolayer interferometry binding to immobilized biotinylated hOGT-(312-1031). The settings on record: 25°C. On the procedure: Measurements were made on a ForteBio Octet RED384 instrument at 25°C. Biotinylated hOGT-(312–1031) was prepared at 25 μg/ml in TBS (25 mM Tris/HCl, pH 7.5, and 150 mM NaCl) buffer containing 1 mM DTT and immobilized on superstreptavidin biosensors. Free streptavidin sites were blocked by incubation with biocytin. A parallel set of superstreptavidin biosensors were prepared with biotinylated streptavidin to act as a control. The assay was carried out in 384-well plates with a sample volume of 100 μl. Inhibitor solutions were prepared from solid stocks and dissolved in assay buffer and a concentration series of 3-fold dilutions from a top concentration of 100 μM was created. Cycles for analysis involved obtaining a 30 s baseline followed by a 60 s association step and a 120 s dissociation step. The assay was repeated with the reference biosensors to correct for non-specific interactions and the entire assay was repeated in triplicate for both compounds. Data were processed and kinetic parameters were calculated using ForteBio software.

Experiment [3] addresses T1, hOGT-(312–1031). Kind of experiment: In vitro glycosylation of hTAB1 by hOGT, Western blot with TAB1-gSer395 antibody and densitometry. The experiment is classed as biochemical. As to conditions: 1 μM TAB1-(7–402), 10 μM UDP-GlcNAc, Western blot densitometric quantification; read-out: IC50, O-GlcNAcylation of substrate protein TAB1. As to the method:
Reaction mixtures containing 1 μM TAB1-(7–402) protein [TAB1 is TGF (transforming growth factor)-β-activated kinase-binding protein 1] (purified as described previously), 0.125 μM hOGT-(312–1031) and 10 μM UDP-GlcNAc in a buffer of 50 mM Tris/HCl (pH 7.5) and 1 mM DTT were incubated at 37°C for 90 min, separated by SDS/PAGE (10% gels) and transferred on to nitrocellulose membranes. Membranes were probed with a TAB1-gSer^395 (O-GlcNAcylated Ser^395) O-GlcNAc site-specific antibody, followed by an IR800-labelled secondary antibody and analysed using a LI-COR Odyssey scanner and associated quantification software. Data were fitted to a four-parameter equation for dose-dependent inhibition using GraphPad Prism 5.0.
Background: In western blotting, separated proteins are transferred to a membrane and probed.

Experiment [4] concerns the target T2, SmNodC (Sinorhizobium meliloti NodC) (Rhizobium meliloti, UniProt P04341).
T2 sequence (P04341 1-426): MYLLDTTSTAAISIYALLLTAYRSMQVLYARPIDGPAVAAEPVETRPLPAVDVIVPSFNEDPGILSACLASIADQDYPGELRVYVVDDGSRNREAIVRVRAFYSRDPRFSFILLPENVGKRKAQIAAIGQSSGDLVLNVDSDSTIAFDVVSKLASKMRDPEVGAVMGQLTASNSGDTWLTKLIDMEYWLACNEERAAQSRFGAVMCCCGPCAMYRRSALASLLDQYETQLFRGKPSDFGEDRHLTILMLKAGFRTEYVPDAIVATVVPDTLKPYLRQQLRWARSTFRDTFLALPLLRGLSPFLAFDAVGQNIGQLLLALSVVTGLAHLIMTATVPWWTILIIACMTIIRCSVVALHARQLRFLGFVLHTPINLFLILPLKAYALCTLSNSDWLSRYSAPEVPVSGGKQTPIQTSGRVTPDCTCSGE
Put plainly: Coupled fluorigenic in vitro assay of GlcNAc transferase SmNodC. The experiment is classed as biochemical. The settings on record: 1 mM–0.46 μM compound. As to the method:
Figure S4 The bacterial GlcNAc transferase NodC is not inhibited by goblin1 7.27–7.20 (m, 4H), 7.16 (t, J 8.2 Hz, 4H), 6.31 (d, J 8.2 Hz, 1H), Sm NodC, a GlcNAc transferase from Sinorhizobium meliloti that utilizes UDP-GlcNAc to 5.11–4.95 (m, 4H), 4.61 (dt, J 8.2, 3.0 Hz, 1H), 4.41 (dd, J 10.5, synthesize chito-oligosaccharides, was assayed to investigate the selectivity of goblin1. A 7.2 Hz, 1H), 4.31 (dd, J 10.5, 7.5 Hz, 1H), 4.24–4.14 (m, 2H), coupled ﬂuorigenic in vitro assay was performed in the presence of 1 mM–0.46 μM of goblin1, 4.10 (dq, J 11.2, 5.9 Hz, 1H), 3.92 (dd, J 9.5, 3.3 Hz, 1H), 3.79 12, 17 and UDP. The assay (details available from D. M. F. v. A. on request) relies on (dd, J 9.5, 2.9 Hz, 1H), 3.58 (dt, J 10.4, 5.4 Hz, 1H), 3.47 (dt, the elongation of 4-methylumbellifer yl-N -acetyl-β 1,4-glucosamine by the GlcNAc transferase J 9.8, 6.0 Hz, 1H), 2.37 (s, 3H), 2.35 (s, 3H), 1.8 (m, 1H), 1.7 Sm NodC, and subsequent hydrolysis of the reaction products by Aspergillus fumigatus chitinase (m, 1H), 1.60 (m, 2H); 13 C NMR (126 MHz, [2 H]chloroform) […]
4-parameter IC50 equation in the GraphPad Prism program (http://www.graphpad.com). […]
Beamline, wavelength (A˚) ID 23-1, 0.981ture was stirred for 16 h at room temperature. The reaction Space group P 321was quenched by the addition of methanol, stirred for 30 min Cell dimensions˚) 273.7, 142.6and concentrated. The residue was partitioned between ethyl […]
Resolution (A acetate and 10 % aqueous citric acid solution and the layers R merge 0.136 (0.505)were separated. The organic layer was washed successively with I /σ I 9.2 (3.1)water and a mixture of saturated NaHCO3 solution and brine.
Completeness (%) 99.2 (99.7)The aqueous layer was additionally extracted with the same Redundancy 4.3 (4.5)portion of ethyl acetate. The combined organic layer was dried and Reﬁnement ˚) 30–3.15concentrated. The residue was puriﬁed by ﬂash chromatography […]

For experiment [5], the target named is hOGT. On the set-up: method as in PMID 23103942. The settings on record: cited from earlier work.
For experiment [6], the target named is hOGT. On the set-up: method as in PMID 21258330. The settings on record: read-out: Ki for hOGT in vitro; cited from earlier work.
The target of experiment [7] is T3, goblin2 (UDP-peptide conjugate 14b).
T3 chain: VTPVS([C4 linker-UDP])TA-NH2
Kind of experiment: biolayer interferometry.

Experiment [8] concerns the target T4, goblin1 (UDP-peptide conjugate 14a).
T4 chain: VTPVS([C3 linker-UDP])TA-NH2
Put plainly: biolayer interferometry. (In general: Biolayer interferometry detects binding as a change in optical thickness at a sensor tip.)

“Also recorded” adds a separate entry of the source. Where a SMILES comes first, the peptide text is derived from it. Where no end group is shown, it is not given here. Side-chain parts run from the residue outwards. The star is where a group is joined. Propyl(3-UDP) = O=c1ccn([C@@H]2O[C@H](COP(=O)(O)OP(=O)(O)OCCC*)[C@@H](O)[C@H]2O)c(=O)[nH]1; X1 = O=c1ccn([C@@H]2O[C@H](COP(=O)(O)OP(=O)(O)OCCCC*)[C@@H](O)[C@H]2O)c(=O)[nH]1; C3 linker = three-carbon linker from the acceptor serine to UDP; C4 linker = four-carbon linker from the acceptor serine to UDP

In the case of `CC(=O)N[C@H](C(=O)N[C@H](C(=O)N1CCC[C@H]1C(=O)N[C@H](C(=O)N[C@@H](COCCCCOP(=O)(O)OP(=O)(O)OC[C@H]1O[C@@H](n2ccc(=O)[nH]c2=O)[C@H](O)[C@@H]1O)C(=O)N[C@H](C(=O)N[C@@H](C)C(N)=O)[C@@H](C)O)C(C)C)[C@@H](C)O)C(C)C` [goblin2] (Ac-VTPVS(X1)TA-NH2), at hOGT-(312–1031) [1], the IC50 was 40 µM. The Kd on hOGT-(312–1031) [2] was 4.9 µM.
Regarding `CC(=O)N[C@H](C(=O)N[C@H](C(=O)N1CCC[C@H]1C(=O)N[C@H](C(=O)N[C@@H](COCCCOP(=O)(O)OP(=O)(O)OC[C@H]1O[C@@H](n2ccc(=O)[nH]c2=O)[C@H](O)[C@@H]1O)C(=O)N[C@H](C(=O)N[C@@H](C)C(N)=O)[C@@H](C)O)C(C)C)[C@@H](C)O)C(C)C` [goblin1] (Ac-VTPVS(Propyl(3-UDP))TA-NH2), the IC50 was determined as 18 µM on hOGT-(312–1031) [1] and 8 µM at hOGT-(312–1031) [3]. This molecule also came in with a Kd on hOGT-(312–1031) [2] of 7.9 µM. Also, the “SmNodC inhibition” value in experiment [4] was “not an inhibitor; also recorded: not inhibited”.
Take `O=c1ccn([C@@H]2O[C@H](COP(=O)(O)OP(=O)(O)O)[C@@H](O)[C@H]2O)c(=O)[nH]1` [UDP, reference compound]: on hOGT [5], the Kd was 0.5 µM. The IC50 in experiment [4] was 90 µM.
As to `CC(=O)N[C@H]1[C@@H](OP(=O)(O)OP(=O)(O)OC[C@H]2O[C@@H](n3ccc(=O)[nH]c3=O)[C@H](O)[C@@H]2O)O[C@H](CO)[C@@H](O)[C@@H]1O` [UDP-GlcNAc], in the experiment with hOGT [5] (biophysical determination), the “fold higher Kd than for UDP” value is given as 30 fold.
In turn, `COCCCOP(=O)(O)OP(=O)(O)OC[C@H]1O[C@@H](n2ccc(=O)[nH]c2=O)[C@H](O)[C@@H]1O` [compound 17] yielded a half-inhibitory concentration (IC50) on hOGT-(312–1031) [1] of 300 µM. Also, the “SmNodC inhibition” value in experiment [4] was “not inhibited”.
`CC(=O)N[C@@H]1[C@@H](O)[C@H](O)[C@@H](CO)S[C@@H]1OP(=O)(O)OP(=O)(O)OC[C@H]1O[C@@H](n2ccc(=O)[nH]c2=O)[C@H](O)[C@@H]1O` [UDP-5S-GlcNAc]: the Ki at hOGT [6] was 8 µM.

B1: O-GlcNAc transferase (hOGT) 312-1031 (protein)
chain: AEDCYNTALRLCPTHADSLNNLANIKREQGNIEEAVRLYRKALEVFPEFAAAHSNLASVLQQQGKLQEALMHYKEAIRISPTFADAYSNMGNTLKEMQDVQGALQCYTRAIQINPAFADAHSNLASIHKDSGNIPEAIASYRTALKLKPDFPDAYCNLAHCLQIVCDWTDYDERMKKLVSIVADQLEKNRLPSVHPHHSMLYPLSHGFRKAIAERHGNLCLDKINVLHKPPYEHPKDLKLSDGRLRVGYVSSDFGNHPTSHLMQSIPGMHNPDKFEVFCYALSPDDGTNFRVKVMAEANHFIDLSQIPCNGKAADRIHQDGIHILVNMNGYTKGARNELFALRPAPIQAMWLGYPGTSGALFMDYIITDQETSPAEVAEQYSEKLAYMPHTFFIGDHANMFPHLKKKAVIDFKSNGHIYDNRIVLNGIDLKAFLDSLPDVKIVKMKCPDGGDNADSSNTALNMPVIPMNTIAEAVIEMINRGQIQITINGFSISNGLATTQINNKAATGEEVPRTIIVTTRSQYGLPEDAIVYCNFNQLYKIDPSTLQMWANILKRVPNSVLWLLRFPAVGEPNIQQYAQNMGLPQNRIIFSPVAPKEEHVRRGQLADVCLDTPLCNGHTTGMDVLWAGTPMVTMPGETLASRVAASQLTCLGCLELIAKNRQEYEDIAVKLGTDLEYLKKVRGKVWKQRISSPLFNTKQYTMELERLYLQMWEHYAAGN
As to B1, the Kd in experiment [7] turned out to be 4.9 µM; in experiment [8], 7.9 µM.
